Results published in the supplement of paper PMC5908809.

Tests used:
[1] = tested on: normal primary NK cells, pool 3 (3 donors) (IL-2 2.5 ng/mL); assay: drug sensitivity score (DSS) (DSS units); higher = more sensitive; extreme values may be limits of the assay; details: 72 h
[2] = tested on: SNK-6 (IL-2 2.5 ng/mL); assay: as above; details: 72 h
[3] = tested on: normal primary NK cells, pool 2 (3 donors) (IL-2 2.5 ng/mL); assay: as above; details: 72 h
[4] = tested on: NK-92 (IL-2 2.5 ng/mL); assay: as above; details: 72 h
[5] = tested on: DERL-7 (IL-2 2.5 ng/mL); assay: as above; details: 72 h
[6] = tested on: IMC-1 (IL-2 20 ng/mL); assay: as above; details: 72 h
[7] = tested on: NK-YS (IL-2 2.5 ng/mL); assay: as above; details: 72 h
[8] = tested on: NKL (IL-2 2.5 ng/mL); assay: as above; details: 72 h
[9] = tested on: normal primary NK cells, pool 1 (3 donors), resting (IL-2 0 ng/mL); assay: as above; details: 72 h
[10] = tested on: YT (IL-2 2.5 ng/mL); assay: as above; details: 72 h
[11] = tested on: normal primary NK cells, pool 1 (3 donors) (IL-2 2.5 ng/mL); assay: as above; details: 72 h
[12] = tested on: KAI3 (IL-2 2.5 ng/mL); assay: as above; details: 72 h
[13] = tested on: KHYG-1 (IL-2 2.5 ng/mL); assay: as above; details: 72 h
[14] = tested on: normal NK cells expanded with K562-aAPC; assay: percent inhibition of viability; higher = more inhibition; details: 72 h, IL-2 2.5 ng/mL
Method: (§1)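 Drug sensitivity and resistance testing on K562-aAPC-expanded normal NK cells: 5 concentrations (10-fold steps over a 10,000-fold range), 72 h at 37 °C, viability by CellTiter-Glo normalised to DMSO and benzethonium chloride controls; DSS from the fitted curve.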

[15] = tested on: normal NK cells expanded with K562-aAPC; assay: drug sensitivity score (DSS) (DSS units); higher = more sensitive; extreme values may be limits of the assay; details: 72 h; IL-2 2.5 ng/mL
Method: as §1

[16] = tested on: normal primary NK cells, pool 3 (3 donors) (IL-2 2.5 ng/mL); assay: percent inhibition of viability; higher = more inhibition; details: 72 h
[17] = tested on: SNK-6 (IL-2 2.5 ng/mL); assay: as above; details: 72 h
[18] = tested on: normal primary NK cells, pool 2 (3 donors) (IL-2 2.5 ng/mL); assay: as above; details: 72 h
[19] = tested on: NK-92 (IL-2 2.5 ng/mL); assay: as above; details: 72 h
[20] = tested on: DERL-7 (IL-2 2.5 ng/mL); assay: as above; details: 72 h
[21] = tested on: IMC-1 (IL-2 20 ng/mL); assay: as above; details: 72 h
[22] = tested on: NK-YS (IL-2 2.5 ng/mL); assay: as above; details: 72 h
[23] = tested on: NKL (IL-2 2.5 ng/mL); assay: as above; details: 72 h
[24] = tested on: normal primary NK cells, pool 1 (3 donors), resting (IL-2 0 ng/mL); assay: as above; details: 72 h
[25] = tested on: YT (IL-2 2.5 ng/mL); assay: as above; details: 72 h
[26] = tested on: normal primary NK cells, pool 1 (3 donors) (IL-2 2.5 ng/mL); assay: as above; details: 72 h
[27] = tested on: KAI3 (IL-2 2.5 ng/mL); assay: as above; details: 72 h
[28] = tested on: KHYG-1 (IL-2 2.5 ng/mL); assay: as above; details: 72 h

CC(C)(C#N)c1cc(Cn2cncn2)cc(C(C)(C)C#N)c1 [Anastrozole] (max concentration tested 10000 nM)
Details	drug sensitivity score
[1]	0
[2]	0
[3]	0
[4]	0
[5]	0
[6]	0
[7]	0
[8]	0
[9]	0
[10]	0
[11]	0
[12]	0
[13]	0
[15]	0

percent inhibition of viability [%]
Details	1 nM	10 nM	100 nM	1000 nM	10000 nM
[14]	-3.07	-7.42	-9.56	-10	-14.1
[16]	-11.2	-0.62	-6.71	-6.71	-5.25
[17]	-1.06	23.5	22.5	-18.6	2.15
[18]	-14.1	-1.97	-6.31	-1.14	-6.99
[19]	2.62	-14.9	-4.14	-11.2	0.08
[20]	1.86	1.72	1.5	4.62	1.85
[21]	-2.19	-4.02	-0.27	-6.87	-2.18
[22]	-0.21	-1.51	-0.63	-2.69	-1.18
[23]	-3.4	-8.92	1.02	-7.99	1.34
[24]	0.43	-12.5	-9.34	-4.56	1.51
[25]	6.09	-6.8	6.6	-5.12	8.27
[26]	-5.66	-8.98	-13.5	1.93	-12.4
[27]	4.34	-3.23	4.57	-3.97	4.8
[28]	-3.64	-8.98	-2.57	-9.89	-0.45

CN[C@@H]1C[C@H]2O[C@@](C)([C@@H]1OC)n1c3ccccc3c3c4c(c5c6ccccc6n2c5c31)C(=O)N[C@H]4O [UCN-01] (max concentration tested 10000 nM)
Details	drug sensitivity score
[1]	22.5
[2]	34
[3]	24.8
[4]	29.2
[5]	30.4
[6]	17.1
[7]	27.8
[8]	27.4
[9]	18.3
[10]	20.2
[11]	23.8
[12]	32.4
[13]	31.8
[15]	28.5

percent inhibition of viability [%]
Details	1 nM	10 nM	100 nM	1000 nM	10000 nM
[14]	0.67	13.9	76.9	100	101
[16]	-5.75	2.95	40.4	97.2	101
[17]	-11	34	92.7	100	101
[18]	-7.23	6.32	58.8	95.4	99
[19]	-0.38	4.42	89.2	107	109
[20]	8.29	22.9	82.2	101	101
[21]	-7.27	-2.85	-13.4	100	101
[22]	2.38	1.74	83.6	96.9	105
[23]	-2.69	2.69	78.1	90.6	106
[24]	-5.95	4.23	23.4	84.6	92.1
[25]	4.61	17.4	28.1	93	108
[26]	4.79	0.37	51.1	95.7	99.2
[27]	6.37	19.1	95.1	105	107
[28]	4.96	7.2	103	110	108
